Measurements taken from patent US20230405136A1, “New Combinations of Boron Compounds and Adjuvants for the Treatment of Pathophysiological Conditions and Cancer and for Muscle Regeneration” (Consorcio Centro De Investigacion Biomedica En Red, M.P., priority 2020, published 2023).

Assays:
Format in all cases: cell-based
[1] = system: human wild type (WT) cells; assay: Myotube formation (sarcomeric α-actinin immunofluorescence) in wild type muscle cells; details: 8 days
Method: (§1) Briefly, the aforementioned cells (DMD, DM1 and WT) were cultured and maintained in 75 cm 2 flasks with skeletal growth medium (Promocell skeletal muscle cell basal medium supplemented with growth factors, calf serum and P/S 1%) at 37° C. in a humidified atmosphere of 5% CO2, until 80% confluence. […] After incubation with the FN coating for 1 h at RT, cells were then seeded at 40.000 cells/well (p-24 plate) in skeletal muscle cell basal medium.
(§2) For the examples where a boron compound was added, after the previous step, different amounts of the boron compound were added in the culture medium, Promocell skeletal muscle cell basal medium).
(§3) After 24 h of culture growth medium was changed by myoblast differentiation medium (DMEM high glucose/P/S 1%, insulin 10 μg/mL) and for the examples where the boron compound was added, then different amounts of boron compound were added. Differentiation medium was changed every 2 days and if necessary, the same amount of the boron compound, as previously incorporated was also added in every change. Myotube formation was evaluated after 8 days.
(§4) Cells were fixed with formalin 4% at the end of the culture for 30 minutes at 4° C. After fixing, cells were washed and conserved at 4° C. in DPBS. Starting with the fixed cells preserved at 4° C. in DPBS, samples were then rinsed with DPBS and permeabilised with DPBS/0.5% Triton X-100 at room temperature for 5 min. Samples were then incubated with sarcomeric α-actinin primary antibody (abcam, 1:200), muscle marker for immunofluorescence detection, in blocking buffer DPBS/2% BSA at 37° C. for 1 h or overnight at 4° C. The samples were then rinsed twice in DPBS/0.1% Triton X-100 and incubated with the secondary antibody anti mouse Cy3 (Invitrogen, 1:200) in blocking buffer at room temperature for 1 h. Finally, samples were washed twice in DPBS/0.1% Triton X-100 before mounting with Vectashield containing DAPI (Vector Laboratories) and observed under an epifluorescence microscope (Nikon Eclipse 80i).
(§5) Cells were cultured and maintained in 75 cm^2 flasks with skeletal growth medium (Promocell skeletal muscle cell basal medium supplemented with growth factors, calf serum and P/S 1%) at 37° C. in a humidified atmosphere of 5% CO2, until 80% confluence. […] After incubation with the FN coating for 1 h at RT, cells were then seeded at 40,000 cells/well (p-24 plate) in Promocell skeletal muscle cell basal medium. After 24 h of culture, growth medium was changed by myoblast differentiation medium (DMEM high glucose/P/S 1%, insulin 10 μg/mL) and different amounts of bortezomib 5.4 10^−6 μg (0.0000054 μg) Ex 1.1, 2.7 10^−5 μg (0.000027 μg) Ex 1.2, 5.4 10^−5 μg (0.000054 μg) Ex 1.3, and 1.1 10^−4 μg (0.00011 μg) Ex 1.4 (all non-cytotoxic concentrations) were added to each sample in the culture medium. Differentiation medium was changed every 2 days and the different amounts of bortezomib 5.4 10^−6 μg, 2.7 10^−5 μg, 5.4 10^−5 μg and 1.1 10^−4 μg, were added to each sample in every change. Myotube formation was evaluated after 8 days. Cells were fixed as described in the control samples. Afterwards, the samples were also rinsed and washed as described in the control samples. […]

human DMD cells [2] = assay: Myotube formation (sarcomeric α-actinin immunofluorescence) in DMD muscle cells; details: 8 days
Method: as §1, §2, §3, §4, §5

human DM1 cells = assay: Myotube formation (sarcomeric α-actinin immunofluorescence) in DM1 muscle cells; details: 8 days
Method: as §1, §2, §3, §4, §5

human DMD cells [3] = assay: Myotube formation (sarcomeric α-actinin immunofluorescence) in DMD muscle cells; details: 8 days; remark: listed apart in the source
[4] = system: human WT, DMD and DM1 cells; assay: Myotube formation, across WT, DMD and DM1 cells
Method: Briefly, the aforementioned cells (DMD, DM1 and WT) were cultured and maintained in 75 cm 2 flasks with skeletal growth medium (Promocell skeletal muscle cell basal medium supplemented with growth factors, calf serum and P/S 1%) at 37° C. in a humidified atmosphere of 5% CO2, until 80% confluence. Glass cover slip substrates (12 mm diameter) were sterilised with UV light for 30 min and then coated with 3.6 μg of fibronectin (FN). After incubation with the FN coating for 1 h at RT, cells were then seeded at 40.000 cells/well (p-24 plate) in skeletal muscle cell basal medium.
as §2, §3
Cells were fixed with formalin 4% at the end of the culture for 30 minutes at 4° C. After fixing, cells were washed and conserved at 4° C. in DPBS. Starting with the fixed cells preserved at 4° C. in DPBS, samples were then rinsed with DPBS and permeabilised with DPBS/0.5% Triton X-100 at room temperature for 5 min. Samples were then incubated with sarcomeric α-actinin primary antibody (abcam, 1:200), muscle marker for immunofluorescence detection, in blocking buffer DPBS/2% BSA at 37° C. for 1 h or overnight at 4° C. […]
Cells were cultured and maintained in 75 cm^2 flasks with skeletal growth medium (Promocell skeletal muscle cell basal medium supplemented with growth factors, calf serum and P/S 1%) at 37° C. in a humidified atmosphere of 5% CO2, until 80% confluence. […] Myotube formation was evaluated after 8 days. […]

[5] = WT, without fibronectin, bortezomib 1.1 10^−4 μg
[6] = WT, without fibronectin, bortezomib 2.7 10^−5 μg
[7] = WT, without fibronectin, bortezomib 5.4 10^−5 μg
[8] = WT, without fibronectin, bortezomib 5.4 10^−6 μg
[9] = WT-FN, with fibronectin (3.6 μg coating), bortezomib 1.1 10^−4 μg
[10] = WT-FN, with fibronectin (3.6 μg coating), bortezomib 2.7 10^−5 μg
[11] = WT-FN, with fibronectin (3.6 μg coating), bortezomib 5.4 10^−5 μg
[12] = WT-FN, with fibronectin (3.6 μg coating), bortezomib 5.4 10^−6 μg
[13] = DMD, without fibronectin, bortezomib 2.7 10^−5 μg
[14] = DMD-FN, with fibronectin (3.6 μg coating), bortezomib 1.1 10^−4 μg
[15] = DMD-FN, with fibronectin (3.6 μg coating), bortezomib 2.7 10^−5 μg
[16] = DMD-FN, with fibronectin (3.6 μg coating), bortezomib 5.4 10^−5 μg
[17] = DMD-FN, with fibronectin (3.6 μg coating), bortezomib 5.4 10^−6 μg
[18] = DM1, without fibronectin, bortezomib 1.1 10^−4 μg
[19] = DM1, without fibronectin, bortezomib 2.7 10^−5 μg
[20] = DM1, without fibronectin, bortezomib 5.4 10^−5 μg
[21] = DM1, without fibronectin, bortezomib 5.4 10^−6 μg
[22] = DM1-FN, with fibronectin (3.6 μg coating), bortezomib 1.1 10^−4 μg
[23] = DM1-FN, with fibronectin (3.6 μg coating), bortezomib 2.7 10^−5 μg
[24] = DM1-FN, with fibronectin (3.6 μg coating), bortezomib 5.4 10^−5 μg
[25] = DM1-FN, with fibronectin (3.6 μg coating), bortezomib 5.4 10^−6 μg
[26] = DMD, without fibronectin, bortezomib 1.1 10^−4 μg
[27] = DMD, without fibronectin, bortezomib 5.4 10^−5 μg
[28] = DMD, without fibronectin, bortezomib 5.4 10^−6 μg
[29] = bortezomib added in the culture medium, 8 days

SMILES: CC(C)C[C@H](NC(=O)[C@H](Cc1ccccc1)NC(=O)c1cnccn1)B(O)O [bortezomib, ((R)-3-Methyl-1-((S)-3-phenyl-2-(pyrazine-2-carboxamido)propanamido)butyl)boronic acid]
- % of cell differentiation [1, 5]: 0%
- myotube diameter [1, 5]: 0 μm
- % of cell differentiation [1, 6]: 55%
- myotube diameter [1, 6]: 60 μm
- % of cell differentiation [1, 7]: 45%
- myotube diameter [1, 7]: 48 μm
- % of cell differentiation [1, 8]: 47%
- myotube diameter [1, 8]: 32 μm
- % of cell differentiation [1, 9]: 39%
- myotube diameter [1, 9]: 63 μm
- % of cell differentiation [1, 10]: 79%
- myotube diameter [1, 10]: 319 μm
- % of cell differentiation [1, 11]: 72%
- myotube diameter [1, 11]: 270 μm
- % of cell differentiation [1, 12]: 70%
- myotube diameter [1, 12]: 122 μm
- % of cell differentiation (human DMD cells [2]; [13]): 31%
- % of cell differentiation (human DMD cells [2]; [14]): 17%
- myotube diameter (human DMD cells [2]; [14]): 17 μm
- myotube diameter (human DMD cells [2]; [15]): 72 μm
- % of cell differentiation (human DMD cells [2]; [16]): 61%
- % of cell differentiation (human DMD cells [2]; [17]): 47%
- myotube diameter (human DMD cells [2]; [17]): 45 μm
- % of cell differentiation (human DM1 cells; [18]): 1%
- myotube diameter (human DM1 cells; [18]): 4 μm
- % of cell differentiation (human DM1 cells; [19]): 13%
- myotube diameter (human DM1 cells; [19]): 11 μm
- % of cell differentiation (human DM1 cells; [20]): 0.5%
- myotube diameter (human DM1 cells; [20]): 4 μm
- % of cell differentiation (human DM1 cells; [21]): 14%
- myotube diameter (human DM1 cells; [21]): 11 μm
- % of cell differentiation (human DM1 cells; [22]): 1%
- myotube diameter (human DM1 cells; [22]): 23 μm
- % of cell differentiation (human DM1 cells; [23]): 55%
- myotube diameter (human DM1 cells; [23]): 79 μm
- % of cell differentiation (human DM1 cells; [24]): 54%
- myotube diameter (human DM1 cells; [24]): 130 μm
- % of cell differentiation (human DM1 cells; [25]): 37%
- myotube diameter (human DM1 cells; [25]): 44 μm
- % of cell differentiation (human DMD cells [3]; [26]): 1%
- myotube diameter (human DMD cells [3]; [26]): 2 μm
- myotube diameter (human DMD cells [3]; [13]): 27 μm
- % of cell differentiation (human DMD cells [3]; [27]): 5%
- myotube diameter (human DMD cells [3]; [27]): 5 μm
- % of cell differentiation (human DMD cells [3]; [28]): 9%
- myotube diameter (human DMD cells [3]; [28]): 15 μm
- % of cell differentiation (human DMD cells [3]; [15]): 80%
- myotube diameter (human DMD cells [3]; [16]): 46 μm
- myotube diameter [4, 29]: importantly increased myotube diameter
- myotube differentiation [4, 29]: enhanced myotube differentiation
- myotube formation and diameter ([4]; dystrophic cells, bortezomib together with FN): restored myotube formation (fusion capability) and improved myotube diameter
